Data on 65 molecules can be found in patent US8551984B2, “Aminopyrimidines as SYK inhibitors” (Merck Sharp & Dohme Corp., priority 2009, dated 2013).

Bounds are passed on as bounds.

One assay addresses recombinant human SYK (GST-hSYK fusion protein) (Homo sapiens, UniProt P43405). In words: biochemical. As to conditions: rhSYK Activity (IC50), recombinant human GST-SYK 5 pM, ATP 25 μM, biotinylated substrate peptide 250 nM, HTRF, 10-dose titration. On the technique in general: In TR-FRET formats the signal depends on donor and acceptor labels being close together.
From the text: Homogeneous Time-Resolved Fluorescence (HTRF) Assay for the Recombinant Human SYK Enzyme:
The IC50 is the concentration at which inhibition is half-maximal. On to `Cc1cc(Nc2nccc(C(F)(F)F)n2)cc(-c2cnc([C@@]3(O)CC[C@H](C(=O)O)C(C)(C)C3)s2)c1Br` [Example 111, (1S,4R)-4-[5-(2-bromo-3-methyl-5-{[4-(trifluoromethyl)pyrimidin-2-yl]amino}phenyl)-1,3-thiazol-2-yl]-4-hydroxy-2,2-dimethylcyclohexanecarboxylic acid], for which the half-maximal inhibitory concentration (IC50) is below 0.1 µM.

The same assay, now with this note: rhSYK Activity, Table 108A.
For the molecule `Cc1cc(Nc2nccc(OCc3c[nH]cn3)n2)cc(-c2cnc(C3(O)CCC3)s2)c1` [Example 108A-2], the IC50 is below 0.1 µM.
As to `Cc1cc(Nc2nccc(OCCN3CCOCC3=O)n2)cc(-c2cnc(C3(O)CCC3)s2)c1` [Example 108A-3], the IC50 is below 0.1 µM.
Same read-out and setting: under `Cc1cc(Nc2nccc(OCC3CCCOC3)n2)cc(-c2cnc(C3(O)CCC3)s2)c1` (centres unmarked) [Example 108A-4] stands below 0.1 µM.
On the same count and under the same terms, as for `Cc1cc(Nc2nccc(OC(CN)c3ccncn3)n2)cc(-c2cnc(C3(O)CCC3)s2)c1` (centres unmarked) [Example 108A-6], the figure is below 0.1 µM; as for `Cc1cc(Nc2nccc(OCc3cccc4ccnn34)n2)cc(-c2cnc(C3(O)CCC3)s2)c1` [Example 108A-7], 0.1 to 1 µM; as for `Cc1cc(Nc2nccc(OCCc3cnn(C)c3)n2)cc(-c2cnc(C3(O)CCC3)s2)c1` [Example 108A-8], below 0.1 µM.
For `Cc1cc(Nc2nccc(OCc3ccon3)n2)cc(-c2cnc(C3(O)CCC3)s2)c1` [Example 108A-9], the IC50 is below 0.1 µM.
Same read-out and setting: as for `Cc1cc(Nc2nccc(OCCn3nccn3)n2)cc(-c2cnc(C3(O)CCC3)s2)c1` [Example 108A-12], the figure is below 0.1 µM; as for `Cc1cc(Nc2nccc(OCCn3ccnn3)n2)cc(-c2cnc(C3(O)CCC3)s2)c1` [Example 108A-13], below 0.1 µM; as for `Cc1cc(Nc2nccc(OCCNC3CCN(C)CC3)n2)cc(-c2cnc(C3(O)CCC3)s2)c1` [Example 108A-14], 0.1 to 1 µM.
Same read-out and setting: as for `Cc1cc(Nc2nccc(OCC3Cc4ccccc4N3)n2)cc(-c2cnc(C3(O)CCC3)s2)c1` (centres unmarked) [Example 108A-15], the figure is 0.1 to 1 µM; as for `Cc1cc(Nc2nccc(OCc3ccnn3C)n2)cc(-c2cnc(C3(O)CCC3)s2)c1` [Example 108A-16], below 0.1 µM; as for `Cc1cc(Nc2nccc(OCCN3CCCNCC3)n2)cc(-c2cnc(C3(O)CCC3)s2)c1` [Example 108A-19], below 0.1 µM.
Still for that read-out and setting: as for `Cc1cc(Nc2nccc(OCC3CN(C)CCN3C)n2)cc(-c2cnc(C3(O)CCC3)s2)c1` (centres unmarked) [Example 108A-20], the figure is below 0.1 µM; as for `Cc1cc(Nc2nccc(OCCc3nnn[nH]3)n2)cc(-c2cnc(C3(O)CCC3)s2)c1` [Example 108A-21], below 0.1 µM; as for `Cc1cc(Nc2nccc(OCC#Cc3cncnc3)n2)cc(-c2cnc(C3(O)CCC3)s2)c1` [Example 108A-22], 0.1 to 1 µM.
For the molecule `Cc1cc(Nc2nccc(OCC3CC(=O)N(C)C3)n2)cc(-c2cnc(C3(O)CCC3)s2)c1` (centres unmarked) [Example 108A-23], the IC50 is below 0.1 µM.
On to `Cc1cc(Nc2nccc(OCC3(C)CCCNC3)n2)cc(-c2cnc(C3(O)CCC3)s2)c1` (centres unmarked) [Example 108A-24], for which the IC50 is below 0.1 µM.
In the case of `Cc1cc(Nc2nccc(OCCC3CN(C)CCO3)n2)cc(-c2cnc(C3(O)CCC3)s2)c1` (centres unmarked) [Example 108A-25], the IC50 was below 0.1 µM.
On the same count and under the same terms, as for `Cc1cc(Nc2nccc(OC(C)CN3CC(C)OC3=O)n2)cc(-c2cnc(C3(O)CCC3)s2)c1` (centres unmarked) [Example 108A-27], the figure is below 0.1 µM; as for `Cc1cc(Nc2nccc(OCCOc3cccc(O)c3)n2)cc(-c2cnc(C3(O)CCC3)s2)c1` [Example 108A-28], 0.1 to 1 µM.
In the case of `Cc1cc(Nc2nccc(OCCCc3cccnc3)n2)cc(-c2cnc(C3(O)CCC3)s2)c1` [Example 108A-29], the IC50 was below 0.1 µM.
Still for that read-out and setting: under `Cc1cc(Nc2nccc(OCCN3CCCC3=O)n2)cc(-c2cnc(C3(O)CCC3)s2)c1` [Example 108A-30] stands below 0.1 µM.
`Cc1cc(Nc2nccc(OCCCCO)n2)cc(-c2cnc(C3(O)CCC3)s2)c1` [Example 108A-31]: the IC50 was below 0.1 µM.
For `Cc1cc(Nc2nccc(OCCO)n2)cc(-c2cnc(C3(O)CCC3)s2)c1` [Example 108A-34], the half-inhibitory concentration (IC50) is below 0.1 µM.
On the same count and under the same terms, under `Cc1cc(Nc2nccc(OCCCO)n2)cc(-c2cnc(C3(O)CCC3)s2)c1` [Example 108A-35] stands below 0.1 µM; under `CCOc1ccnc(Nc2cc(C)cc(-c3cnc(C4(O)CCC4)s3)c2)n1` [Example 108A-36], below 0.1 µM; under `Cc1cc(Nc2nccc(OC(C)C)n2)cc(-c2cnc(C3(O)CCC3)s2)c1` [Example 108A-37], below 0.1 µM.
`Cc1cc(Nc2nccc([S+](C)[O-])n2)cc(-c2cnc(C3(O)CCC3)s2)c1` (centres unmarked) [Example 108A-38]: the IC50 was below 0.1 µM.
Still for that read-out and setting: under `Cc1cc(Nc2nccc(S(C)(=O)=O)n2)cc(-c2cnc(C3(O)CCC3)s2)c1` [Example 108A-39] stands below 0.1 µM; under `CCSc1ccnc(Nc2cc(C)cc(-c3cnc(C4(O)CCC4)s3)c2)n1` [Example 108A-40], below 0.1 µM; under `CCCCSc1ccnc(Nc2cc(C)cc(-c3cnc(C4(O)CCC4)s3)c2)n1` [Example 108A-41], 0.1 to 1 µM.
Still for that read-out and setting: under `Cc1cc(Nc2nccc(SC(C)C)n2)cc(-c2cnc(C3(O)CCC3)s2)c1` [Example 108A-43] stands below 0.1 µM.
On the same count and under the same terms, as for `Cc1cc(Nc2nccc(SCCO)n2)cc(-c2cnc(C3(O)CCC3)s2)c1` [Example 108A-44], the figure is below 0.1 µM.
For `Cc1cc(Nc2nccc(SCCCO)n2)cc(-c2cnc(C3(O)CCC3)s2)c1` [Example 108A-45], the IC50 is below 0.1 µM.
Same read-out and setting: as for `Cc1cc(Nc2nccc(SCCCCO)n2)cc(-c2cnc(C3(O)CCC3)s2)c1` [Example 108A-46], the figure is below 0.1 µM.

The same assay, now with this note: rhSYK Activity, Table 109.
As for `CC(=O)N1CCC(Oc2ccnc(Nc3cc(N)cc(-c4cnc(C5(O)CCC5)s4)c3)n2)CC1` [Example 109-6], the half-maximal inhibitory concentration (IC50) is below 0.1 µM.
Take `O=C(Nc1cc(Nc2nccc(OC3CCOCC3)n2)cc(-c2cnc(C3(O)CCC3)s2)c1)C(F)(F)F` [Example 109-7]: the half-inhibitory concentration (IC50) lay in the range of 0.1 to 1 µM.
The same measure, in the same setting: as for `CC(=O)Nc1cc(Nc2nccc(OC3CCOCC3)n2)cc(-c2cnc(C3(O)CCC3)s2)c1` [Example 109-8], the figure is below 0.1 µM; as for `Nc1cc(Nc2nccc(OC3CCOCC3)n2)cc(-c2cnc(C3(O)CCC3)s2)c1` [Example 109-9], below 0.1 µM; as for `NC(=O)Nc1cc(Nc2nccc(OC3CCNCC3)n2)cc(-c2cnc(C3(O)CCC3)s2)c1` [Example 109-11], below 0.1 µM.
Consider `Nc1cc(Nc2nccc(OC3CCNCC3)n2)cc(-c2cnc(C3(O)CCC3)s2)c1` [Example 109-12], for which the IC50 is below 0.1 µM.
`Nc1cc(Nc2nccc(OC3CNC3)n2)cc(-c2cnc(C3(O)CCC3)s2)c1` [Example 109-14]: the IC50 is below 0.1 µM.

The same assay, now with this note: rhSYK Activity, Table 113A.
`COCCOc1ccnc(Nc2cc(C)cc(-c3cnc(C4(O)CCC(C(=O)O)CC4)s3)c2)n1` (centres unmarked) [Example 113A-1]: the half-maximal inhibitory concentration (IC50) is below 0.1 µM.
Consider `COCCCOc1ccnc(Nc2cc(C)cc(-c3cnc([C@]4(O)CC[C@@H](C(=O)O)CC4)s3)c2)n1` [Example 113A-2], for which the IC50 was below 0.1 µM.
On the same count and under the same terms, under `O=C(O)[C@H]1CC[C@](O)(c2ncc(-c3cc(Cl)cc(Nc4nccc(C(F)(F)F)n4)c3)s2)CC1` [Example 113A-3] stands below 0.1 µM.
On the same count and under the same terms, as for `Cc1cc(Nc2nccc(C)n2)cc(-c2cnc(C3(O)CCC(C(=O)O)C(C)C3)s2)c1` (centres unmarked) [Example 113A-4], the figure is below 0.1 µM; as for `COC(=O)C1CCC(O)(c2ncc(-c3cc(C)cc(Nc4nccc(C)n4)c3)s2)CC1C` (centres unmarked) [Example 113A-8], below 0.1 µM; as for `COC(=O)C1CCC(O)(c2ncc(-c3cc(C)cc(Nc4nccc(C)n4)c3)s2)CC1C` (centres unmarked) [Example 113A-9], 0.1 to 1 µM.
`COC(=O)C1CCC(O)(c2ncc(-c3cc(C)cc(Nc4nccc(C)n4)c3)s2)CC1C` (centres unmarked) [Example 113A-10]: the IC50 was below 0.1 µM.
On the same count and under the same terms, as for `COC(=O)C1CCC(O)(c2ncc(-c3cc(C)cc(Nc4nccc(C)n4)c3)s2)CC1C` (centres unmarked) [Example 113A-11], the figure is below 0.1 µM; as for `COC(=O)C1CCC(O)(c2ncc(-c3cc(C)cc(Nc4nccc(C)n4)c3)s2)CC1C` (centres unmarked) [Example 113A-12], 0.1 to 1 µM; as for `COC(=O)C1CCC(O)(c2ncc(-c3cc(C)cc(Nc4nccc(C)n4)c3)s2)CC1C` (centres unmarked) [Example 113A-13], 0.1 to 1 µM.
For the molecule `CCc1ccnc(Nc2cc(C)cc(-c3cnc(C4(O)CCC(C(=O)O)C(C)C4)s3)c2)n1` (centres unmarked) [Example 113A-14], the IC50 was below 0.1 µM.
Regarding `COc1ccnc(Nc2cc(C)cc(-c3cnc([C@@]4(O)CC[C@H](C(=O)O)[C@H](C)C4)s3)c2)n1` [Example 113A-16], the IC50 is below 0.1 µM.
The same measure, in the same setting: as for `Cc1cc(Nc2ncc(F)c(C)n2)cc(-c2cnc([C@]3(O)CC[C@@H](C(=O)O)[C@@H](C)C3)s2)c1` [Example 113A-19], the figure is below 0.1 µM; as for `Cc1cc(Nc2nccc(C3CC3)n2)cc(-c2cnc([C@]3(O)CC[C@@H](C(=O)O)[C@@H](C)C3)s2)c1` [Example 113A-20], below 0.1 µM.
Take `Cc1cc(Nc2nccc(C3CC3)n2)cc(-c2cnc([C@@]3(O)CC[C@H](C(=O)O)[C@H](C)C3)s2)c1` [Example 113A-21]: the IC50 was below 0.1 µM.
The same measure, in the same setting: under `Cc1cc(Nc2nccc(C3CC3)n2)cc(-c2cnc(C3(O)CCC(C(=O)O)C(C)C3)s2)c1` (centres unmarked) [Example 113A-22] stands below 0.1 µM; under `Cc1ccnc(Nc2cc(-c3cnc(C4(O)CCC(C(=O)O)C(C)C4)s3)cc(C3CC3)c2)n1` (centres unmarked) [Example 113A-23], below 0.1 µM; under `Cc1cc(Nc2nccc(C(C)C)n2)cc(-c2cnc([C@@]3(O)CC[C@H](C(=O)O)[C@H](C)C3)s2)c1` [Example 113A-25], below 0.1 µM.
For `Cc1cc(Nc2nccc(C(C)C)n2)cc(-c2cnc([C@]3(O)CC[C@@H](C(=O)O)[C@@H](C)C3)s2)c1` [Example 113A-26], the IC50 is below 0.1 µM.
Still for that read-out and setting: under `Cc1cc(Nc2ncc(Cl)c(C)n2)cc(-c2cnc([C@@]3(O)CC[C@H](C(=O)O)[C@H](C)C3)s2)c1` [Example 113A-27] stands below 0.1 µM; under `Cc1cc(Nc2ncc(Cl)c(C)n2)cc(-c2cnc([C@]3(O)CC[C@@H](C(=O)O)[C@@H](C)C3)s2)c1` [Example 113A-28], below 0.1 µM.
